# According to patent publication US11040954B1, “CXCR3 receptor agonists” (RECEPTOS LLC, priority 2016, dated 2021):
# Target: T1, CXCR3 (Homo sapiens, UniProt P49682)
# T1 construct: host or cells: CHO-K1 (cAMP Hunter CHOK1 CXCR3 Gi cell line)
# T1 sequence (P49682 1-368): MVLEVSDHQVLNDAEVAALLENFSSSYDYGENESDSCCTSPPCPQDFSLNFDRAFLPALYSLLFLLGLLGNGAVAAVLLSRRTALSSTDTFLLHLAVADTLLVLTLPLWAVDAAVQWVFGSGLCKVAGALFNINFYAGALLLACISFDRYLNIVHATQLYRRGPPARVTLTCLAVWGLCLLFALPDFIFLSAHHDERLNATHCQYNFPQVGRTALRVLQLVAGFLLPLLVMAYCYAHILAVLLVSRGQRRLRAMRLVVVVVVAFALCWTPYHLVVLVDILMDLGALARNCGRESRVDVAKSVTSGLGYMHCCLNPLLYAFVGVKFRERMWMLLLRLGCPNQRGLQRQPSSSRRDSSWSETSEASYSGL
# Assay: CXCR3 cAMP agonist assay (cAMP Hunter CHOK1 CXCR3 Gi cell line, forskolin-stimulated, HitHunter cAMP detection)
# Assay type: cell-based
# Conditions: cAMP Hunter CHOK1 CXCR3 Gi cells, 20 μM forskolin, 30 minutes; read-out: Activity (CXCR3 cAMP agonist assay compound EC50)
# How it was run: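 Agonist activity was measured as suppression of forskolin (20 μM)-induced cAMP, read by luminescent enzyme-fragment complementation with a cAMP standard curve and CXCL11 defining full efficacy. Assay used 50,000 CXCR3 Gi CHOK1 cells/well in pH 7.4 HEPES-buffered HBSS with 0.1% BSA, compound 0-10 μM over 12 points, 30 min incubation.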
row,SMILES,EC50
1,Cc1cc(NC(=O)[C@H](CCN)NC(=O)[C@@H]2Cc3ccccc3CN2C(=O)CCC(=O)N2CCC[C@H]2C(F)F)ccc1Cl [Compound 12-143],< 50 nM
2,CCC1CCN(C(=O)CCC(=O)N2Cc3ccccc3C[C@H]2C(=O)N[C@@H](CCN)C(=O)Nc2ccc(Cl)c(C)c2)CC1 [Compound 12-61],< 50 nM
3,Cc1cc(NC(=O)[C@H](CCN)NC(=O)[C@@H]2Cc3ccccc3CN2C(=O)CCC(=O)N2CC3CC(C3)C2)ccc1Cl [Compound 12-66],< 50 nM
4,NCC[C@H](NC(=O)[C@@H]1Cc2ccccc2CN1C(=O)CCC(=O)c1ccccc1)C(=O)Nc1ccc(Cl)cc1Cl [Compound 2-52],50 to 250 nM
5,NCCCC[C@H](NC(=O)[C@@H]1Cc2ccccc2CN1C(=O)CCC(=O)c1ccccc1)C(=O)Nc1ccc(C(F)(F)F)c(F)c1 [Compound 1-19],250 to 500 nM
6,Cc1cc(NC(=O)[C@H](CCN)NC(=O)[C@@H]2Cc3ccccc3CN2C(=O)CCC(=O)N2CCN(CC#N)CC2)ccc1Cl [Compound 12-117],50 to 250 nM
7,Cc1cc(NC(=O)C2(NC(=O)[C@@H]3Cc4ccccc4CN3C(=O)CCC(=O)c3ccccc3)CCNCC2)c(Cl)cc1Cl [Compound 11-6],< 50 nM
8,Cc1cc(NC(=O)C(NC(=O)[C@@H]2Cc3ccccc3CN2C(=O)CCC(=O)c2ccccc2)C2CCNCC2)ccc1Cl (mixture of isomers) [Compound 4-7],> 500 nM
9,COc1ccc(C(=O)CCC(=O)N2Cc3ccccc3C[C@H]2C(=O)N[C@@H](CCCCN)C(=O)Nc2ccc(Cl)c(C)c2)cc1F [Compound 7-9],> 500 nM
10,Cc1cc(NC(=O)[C@H](CCN)NC(=O)[C@@H]2Cc3ccccc3CN2C(=O)CCC(=O)NCC2CCOCC2)ccc1Cl [Compound 12-12],> 500 nM
11,Cc1cc(NC(=O)[C@H](CCN)NC(=O)[C@@H]2Cc3ccccc3CN2C(=O)CCC(=O)N2CCCC2C(F)(F)F)ccc1Cl (some centres unmarked) [Compound 12-51],< 50 nM
12,Cc1cc(NC(=O)[C@H](CCN)NC(=O)[C@@H]2Cc3ccccc3CN2C(=O)CCC(=O)N2CCCC23CCC3)ncc1Cl [Compound 12-156],< 50 nM
13,Cc1cc(NC(=O)[C@H](CCN)NC(=O)[C@@H]2Cc3ccccc3CN2C(=O)CCC(=O)N2CCCC3(CCC3)C2)ncc1Cl [Compound 12-158],< 50 nM
14,NCCCC[C@H](NC(=O)[C@@H]1Cc2ccccc2CN1C(=O)CCC(=O)c1ccccc1)C(=O)Nc1ccc(C(F)(F)F)c(Cl)c1 [Compound 1-22],250 to 500 nM
15,Cc1cc(NC(=O)[C@H](CCN)NC(=O)[C@@H]2Cc3ccccc3CN2C(=O)CCC(=O)N2[C@@H](C)CCC[C@@H]2C)ccc1Cl [Compound 12-142],< 50 nM
16,"Cc1cc(NC(=O)[C@H](CNC(=N)N)NC(=O)[C@@H]2Cc3ccccc3CN2C(=O)CCC(=O)c2ccccc2)ccc1Cl [Compound 9-1, (S)—N—((S)-1-((4-chloro-3-methylphenyl)amino)-3-guanidino-1-oxopropan-2-yl)-2-(4-oxo-4-phenylbutanoyl)-1,2,3,4-tetrahydroisoquinoline-3-carboxamide]",< 50 nM
17,NCC[C@H](NC(=O)[C@@H]1Cc2ccccc2CN1C(=O)CCC(=O)c1ccccc1)C(=O)Nc1ccc2ncsc2c1 [Compound 2-65],50 to 250 nM
18,Cc1cc(NC(=O)[C@H](CCN)NC(=O)[C@@H]2Cc3ccccc3CN2C(=O)CCC(=O)N2CC(N(C)C)C2)ccc1Cl [Compound 12-133],50 to 250 nM
19,Cc1cc(NC(=O)[C@H](CCN)NC(=O)[C@@H]2Cc3ccccc3CN2C(=O)CCC(=O)N2CCOC[C@@H]2C)ccc1Cl [Compound 12-27],50 to 250 nM
20,Cc1cc(NC(=O)[C@H](CCN)NC(=O)[C@@H]2Cc3ccccc3CN2C(=O)CCC(=O)N2CCCC23CCC3)cc(C)c1Cl [Compound 10-10],< 50 nM
21,Cc1cc(NC(=O)[C@H](CCN)NC(=O)[C@@H]2Cc3ccccc3CN2C(=O)CCC(=O)N2CCC(C(C)C)CC2)ccc1Cl [Compound 12-60],< 50 nM
22,Cc1cc(NC(=O)C2(NC(=O)[C@@H]3Cc4ccccc4CN3C(=O)CCC(=O)c3ccccc3)CCNCC2)c(F)cc1Cl [Compound 11-3],< 50 nM
23,Cc1cc(NC(=O)[C@H](CCNC(=N)N)NC(=O)[C@@H]2Cc3ccccc3CN2C(=O)CCC(=O)c2ccccc2)ccc1Cl [Compound 3-2],< 50 nM
24,Cc1cc(NC(=O)[C@H](CCN)NC(=O)[C@@H]2Cc3ccccc3CN2C(=O)CCC(=O)NCC2CCCC2)ccc1Cl [Compound 12-10],50 to 250 nM
25,Cc1ccc(Cl)c(NC(=O)[C@H](CCN)NC(=O)[C@@H]2Cc3ccccc3CN2C(=O)CCC(=O)c2ccccc2)c1 [Compound 2-35],50 to 250 nM
26,CCC1CN(C(=O)CCC(=O)N2Cc3ccccc3C[C@H]2C(=O)N[C@@H](CCN)C(=O)Nc2ccc(Cl)c(C)c2)CCN1C (some centres unmarked) [Compound 12-104],< 50 nM

# Results, then the compound that gave them:
row,EC50,SMILES
1,> 500 nM,"O=C(CCC(=O)N1Cc2ccccc2CC1C(=O)NC(CCN1CCC(F)CC1)C(=O)Nc1ccc2c(c1)CCC2)c1ccccc1 (racemic) [Compound 23-1, N-(1-((2,3-dihydro-1H-inden-5-yl)amino)-4-(4-fluoropiperidin-1-yl)-1-oxobutan-2-yl)-2-(4-oxo-4-phenylbutanoyl)-1,2,3,4-tetrahydroisoquinoline-3-carboxamide]"
2,< 50 nM,NCC[C@H](NC(=O)[C@@H]1Cc2ccccc2CN1C(=O)CCC(=O)c1ccccc1)C(=O)Nc1cc(Cl)c(Cl)cc1C(F)(F)F [Compound 14-2]
3,< 50 nM,"Cc1cc(NC(=O)[C@H](CCNC2CC2)NC(=O)[C@@H]2Cc3ccccc3CN2C(=O)CCC(=O)c2ccccc2)ccc1Cl [Compound 16-1, (S)—N—((S)-1-((4-chloro-3-methylphenyl)amino)-4-(cyclopropylamino)-1-oxobutan-2-yl)-2-(4-oxo-4-phenylbutanoyl)-1,2,3,4-tetrahydroisoquinoline-3-carboxamide]"
4,250 to 500 nM,"Cc1cc(NC(=O)[C@@H](CC23CC(N)(C2)C3)NC(=O)[C@@H]2Cc3ccccc3CN2C(=O)CCC(=O)c2ccccc2)ccc1Cl [Compound 22-2, (S)—N—((R)-3-(3-aminobicyclo[1.1.1]pentan-1-yl)-1-((4-chloro-3-methylphenyl)amino)-1-oxopropan-2-yl)-2-(4-oxo-4-phenylbutanoyl)-1,2,3,4-tetrahydroisoquinoline-3-carboxamide]"
5,< 50 nM,CN(C(=O)CCC(=O)N1Cc2ccccc2C[C@H]1C(=O)N[C@@H](CCN)C(=O)Nc1ccc(Cl)c(Cl)c1F)C1CCCC1 [Compound 15-36]
6,250 to 500 nM,"[N-]=[N+]=NCC[C@H](NC(=O)[C@@H]1Cc2ccccc2CN1C(=O)CCC(=O)c1ccccc1)C(=O)Nc1ccc(Cl)c(Cl)c1F [Compound 14-22, (S)—N—((S)-4-azido-1-((3,4-dichloro-2-fluorophenyl)amino)-1-oxobutan-2-yl)-2-(4-oxo-4-phenylbutanoyl)-1,2,3,4-tetrahydroisoquinoline-3-carboxamide]"
7,50 to 250 nM,"Cc1cc(NC(=O)C2(NC(=O)[C@@H]3Cc4ccccc4CN3C(=O)CCC(=O)c3ccccc3)CCN(CCO)CC2)ccc1Cl [Compound 20-1, (S)—N-(4-((4-chloro-3-methylphenyl)carbamoyl)-1-(2-hydroxyethyl)piperidin-4-yl)-2-(4-oxo-4-phenylbutanoyl)-1,2,3,4-tetrahydroisoquinoline-3-carboxamide]"
8,< 50 nM,"Cc1cnc(NC(=O)[C@H](CCN)NC(=O)[C@@H]2Cc3ccccc3CN2C(=O)CCC(=O)c2ccccc2)cc1Cl [Compound 27-1, (S)—N—((S)-4-amino-1-((4-chloro-5-methylpyridin-2-yl)amino)-1-oxobutan-2-yl)-2-(4-oxo-4-phenylbutanoyl)-1,2,3,4-tetrahydroisoquinoline-3-carboxamide]"
9,< 50 nM,CO[C@H]1CCCN(C(=O)CCC(=O)N2Cc3ccccc3C[C@H]2C(=O)N[C@@H](CCN)C(=O)Nc2ccc(Cl)c(Cl)c2F)C1 [Compound 15-26]
10,> 500 nM,COc1c(NC(=O)[C@H](CCN)NC(=O)[C@@H]2Cc3ccccc3CN2C(=O)CCC(=O)c2ccccc2)ccc(Cl)c1Cl [Compound 14-27]
11,250 to 500 nM,O=C(CCC(=O)N1Cc2ccccc2C[C@H]1C(=O)N[C@@H](CCN1CCCC(F)(F)C1)C(=O)Nc1ccc(Cl)c(Cl)c1F)c1ccccc1 [Compound 23-5]
12,50 to 250 nM,Cc1ccc(NC(=O)[C@H](CCN)NC(=O)[C@@H]2Cc3ccccc3CN2C(=O)CCC(=O)c2ccccc2)c(OC(F)(F)F)c1 [Compound 13-7]
13,50 to 250 nM,NCC[C@H](NC(=O)[C@@H]1Cc2ccccc2CN1C(=O)CCC(=O)c1ccccc1)C(=O)Nc1ccc(Cl)cc1OC(F)(F)F [Compound 14-23]
14,< 50 nM,CCN(C(=O)CCC(=O)N1Cc2ccccc2C[C@H]1C(=O)N[C@@H](CCN)C(=O)Nc1ccc(Cl)c(Cl)c1F)C(C)(C)C [Compound 15-35]
15,< 50 nM,NCC[C@H](NC(=O)[C@@H]1Cc2ccccc2CN1C(=O)CCC(=O)c1ccccc1)C(=O)Nc1cc(Cl)c(Cl)c(Cl)c1 [Compound 14-4]
16,< 50 nM,CC1CN(C(=O)CCC(=O)N2Cc3ccccc3C[C@H]2C(=O)N[C@@H](CCN)C(=O)Nc2ccc(Cl)c(Cl)c2F)CC1C (some centres unmarked) [Compound 15-29]
17,< 50 nM,CC(C)(O)C1CCCCN1C(=O)CCC(=O)N1Cc2ccccc2C[C@H]1C(=O)N[C@@H](CCN)C(=O)Nc1ccc(Cl)c(Cl)c1F (some centres unmarked) [Compound 15-55]
18,< 50 nM,COCC1CCCCN1C(=O)CCC(=O)N1Cc2ccccc2C[C@H]1C(=O)N[C@@H](CCN)C(=O)Nc1ccc(Cl)c(Cl)c1F (some centres unmarked) [Compound 15-16]
